pKi: −log10 of the molar value.
Molecular target: T1, Cdc7 (BEV coexpressed huCDC7/DBF4) (Homo sapiens, UniProt O00311)
T1 construct: made in house; host or cells: baculovirus expression vector (BEV) system
Test: Cdc7 enzyme inhibition assay ([33P]-ATP, biotinylated peptide substrate, FlashPlate)
Assay type: biochemical
Procedure: Cdc7 (BEV coexpressed huCDC7/DBF4) is prepared internally. Cdc7 assays are conducted as follows with final concentrations as listed. In 384-well v-bottom polypropylene plates, 6 L compound (2% DMSO), is mixed with 6 µL of Cdc7 (2 μg/mL), and Jerini peptide substrate A-All (biotin-C6linker-TPSDSLIYDDGLS) (2 μM), followed by immediate initiation with 6 L […] (1 μM, 20 mCi/μmol) using a reaction buffer comprising 25 mM HEPES, pH 7.5, 1 mM DTT, 10 mM MgCl2, 100 μM Na3VO4, 0.075 mg/ml Triton X-100. Reactions are quenched after 1 hr by the addition of 90 L stop buffer (50 mM EDTA, 2M NaCl). 85 μL of the stopped reactions are transferred to 384-well streptavidin-coated plates (FlashPlate Plus, Perkin Elmer), incubated 30 minutes at room temperature and washed 3 times with 0.05% Tween-20/PBS using an ELX-405 automated plate washer (BioTek), and counted on a TopCount Scintillation Plate Reader (Packard). IC50 values are determined via non-linear regression fitting of enzyme inhibition data and corresponding Ki values are generated assuming ATP-competitive (equilibrium) inhibition and using the experimentally determined apparent ATP Km of 0.7 μM (as determined using the above assay condition, but varying ATP). Table 1 depicts enzyme inhibition data (Ki) for exemplary compounds. In Table 1, “A” represents a Ki of less than 10 nM, “B” represents a Ki of between 10 nM and 100 nM, and “C” represents a Ki of greater than 100 nM.
Table 2 depicts enzyme inhibition data (Ki) for examples 27-43 using the same assay as example 26. In Table 2, “A” represents a Ki of less than 10 nM, “B” represents a Ki of between 10 nM and 100 nM, and “C” represents a Ki of greater than 100 nM.

[1] = Table 1, Ki from IC50 assuming ATP-competitive inhibition, apparent ATP Km 0.7 μM, 1 μM ATP
[2] = Table 2, same assay as example 26

T1 sequence (O00311 whole entry): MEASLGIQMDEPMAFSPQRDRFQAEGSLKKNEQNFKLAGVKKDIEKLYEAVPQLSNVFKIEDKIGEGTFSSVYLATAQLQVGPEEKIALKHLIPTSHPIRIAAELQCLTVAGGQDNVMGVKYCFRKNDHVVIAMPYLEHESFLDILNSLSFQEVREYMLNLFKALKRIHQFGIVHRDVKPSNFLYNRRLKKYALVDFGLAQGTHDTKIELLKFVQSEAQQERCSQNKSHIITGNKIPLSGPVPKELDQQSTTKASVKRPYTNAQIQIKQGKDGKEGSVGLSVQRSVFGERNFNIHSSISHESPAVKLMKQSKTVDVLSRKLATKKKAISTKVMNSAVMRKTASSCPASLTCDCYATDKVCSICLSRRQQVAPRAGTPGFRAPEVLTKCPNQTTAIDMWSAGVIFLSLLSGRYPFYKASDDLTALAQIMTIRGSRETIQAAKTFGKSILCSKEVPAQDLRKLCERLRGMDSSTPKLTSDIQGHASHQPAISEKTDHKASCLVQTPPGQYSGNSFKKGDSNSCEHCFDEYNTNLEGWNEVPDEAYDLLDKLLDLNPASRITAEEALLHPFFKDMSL
T1 sequence (Q9UBU7 whole entry partner): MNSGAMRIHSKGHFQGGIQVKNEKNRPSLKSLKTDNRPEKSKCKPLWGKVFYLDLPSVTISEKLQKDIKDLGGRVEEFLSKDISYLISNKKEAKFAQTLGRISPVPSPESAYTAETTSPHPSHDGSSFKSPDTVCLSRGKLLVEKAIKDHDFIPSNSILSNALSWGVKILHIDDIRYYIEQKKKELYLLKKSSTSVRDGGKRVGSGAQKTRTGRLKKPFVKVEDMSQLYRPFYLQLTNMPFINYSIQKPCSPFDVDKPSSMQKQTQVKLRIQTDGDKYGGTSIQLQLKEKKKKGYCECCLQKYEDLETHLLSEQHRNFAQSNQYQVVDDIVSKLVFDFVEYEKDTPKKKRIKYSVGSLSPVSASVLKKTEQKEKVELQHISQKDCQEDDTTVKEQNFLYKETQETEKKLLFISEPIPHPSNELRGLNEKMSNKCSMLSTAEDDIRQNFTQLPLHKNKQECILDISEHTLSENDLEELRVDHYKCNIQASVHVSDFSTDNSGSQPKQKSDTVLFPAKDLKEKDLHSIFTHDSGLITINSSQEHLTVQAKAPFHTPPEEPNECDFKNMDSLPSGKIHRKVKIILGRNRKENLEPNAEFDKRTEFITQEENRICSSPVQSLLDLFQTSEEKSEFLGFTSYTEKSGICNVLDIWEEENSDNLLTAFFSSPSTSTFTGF

Row | Structure (SMILES) | pKi [1] | pKi [2]
1 | CN(C)C1CCCC(Nc2cc(-c3c[nH]c4nccnc34)cc(Cl)n2)C1 (stereo not shown) [Example 12, N^1-(6-chloro-4-(5H-pyrrolo[2,3-b]pyrazin-7-yl)pyridin-2-yl)-N^3,N^3-dimethylcyclohexane-1,3-diamine] | > 8.00 | –
2 | CS(=O)(=O)NC1CCCC(Nc2cc(-c3c[nH]c4nccnc34)cc(Cl)n2)C1 (stereo not shown) [Example 13, N-(3-(6-chloro-4-(5H-pyrrolo[2,3-b]pyrazin-7-yl)pyridin-2-ylamino)cyclohexyl)methanesulfonamide] | > 8.00 | –
3 | CCCCC(=O)Nc1cc(-c2c[nH]c3nccnc23)cc(Cl)n1 [Example 14, N-(6-chloro-4-(5H-pyrrolo[2,3-b]pyrazin-7-yl)pyridin-2-yl)pentanamide] | > 8.00 | –
4 | O=C(Nc1cc(-c2c[nH]c3nccnc23)cc(Cl)n1)c1cccnc1 [Example 15, N-(6-chloro-4-(5H-pyrrolo[2,3-b]pyrazin-7-yl)pyridin-2-yl)nicotinamide] | > 8.00 | –
5 | O=C(Nc1cc(-c2c[nH]c3nccnc23)cc(Cl)n1)C1CCNCC1 [Example 16, N-(6-chloro-4-(5H-pyrrolo[2,3-b]pyrazin-7-yl)pyridin-2-yl)piperidine-4-carboxamide] | > 8.00 | –
6 | O=C(Nc1cc(-c2c[nH]c3nccnc23)cc(Cl)n1)c1ccccc1 [Example 17, N-(6-chloro-4-(5H-pyrrolo[2,3-b]pyrazin-7-yl)pyridin-2-yl)benzamide] | 7.00 to 8.00 | –
7 | Nc1cc(-c2c[nH]c3nccnc23)cc(Cl)n1 [Example 18, 6-chloro-4-(5H-pyrrolo[2,3-b]pyrazin-7-yl)pyridin-2-amine] | > 8.00 | –
8 | CC(C)(CN)CNc1cc(-c2c[nH]c3nccnc23)cc(Cl)n1 [Example 19, N^1-(6-chloro-4-(5H-pyrrolo[2,3-b]pyrazin-7-yl)pyridin-2-yl)-2,2-dimethylpropane-1,3-diamine] | > 8.00 | –
9 | Clc1cc(-c2c[nH]c3nccnc23)nc(NC2CCCCC2)n1 [Example 21, 4-chloro-N-cyclohexyl-6-(5H-pyrrolo[3,2-b]pyrazin-7-yl)pyrimidin-2-amine] | < 7.00 | –
10 | CCn1cc(-c2cc(Cl)nc(N[C@H]3CC[C@H](NC(=O)C4CC4)CC3)c2)c2nccnc21 [Example 22] | < 7.00 | –
11 | CN(C)CC(=O)NC1CCCC(Nc2cc(-c3c[nH]c4nccnc34)cc(Cl)n2)C1 (stereo not shown) [Example 23, N-(3-(6-chloro-4-(5H-pyrrolo[2,3-b]pyrazin-7-yl)pyridin-2-ylamino)cyclohexyl)-2-(dimethylamino)acetamide] | > 8.00 | –
12 | CCn1cc(-c2cc(Cl)nc(NC3CCCC(NC(=O)CN(C)C)C3)c2)c2nccnc21 (stereo not shown) [Example 24] | < 7.00 | –
13 | O=S(=O)(NC1CCCC(Nc2cc(-c3c[nH]c4nccnc34)cc(Cl)n2)C1)c1ccco1 (stereo not shown) [Example 25, N-(3-(6-chloro-4-(5H-pyrrolo[2,3-b]pyrazin-7-yl)pyridin-2-ylamino)cyclohexyl)furan-2-sulfonamide] | > 8.00 | –
14 | CN1CCCC(Nc2cc(-c3c[nH]c4nccnc34)cc(Cl)n2)C1 (stereo not shown) [Example 27, 6-chloro-N-(1-methylpiperidin-3-yl)-4-(5H-pyrrolo[2,3-b]pyrazin-7-yl)pyridin-2-amine] | – | > 8.00
15 | CN1CCCC(CNc2cc(-c3c[nH]c4nccnc34)cc(Cl)n2)C1 (stereo not shown) [Example 28, 6-chloro-N-[(1-methylpiperidin-3-yl)methyl]-4-(5H-pyrrolo[2,3-b]pyrazin-7-yl)pyridin-2-amine] | – | > 8.00
16 | O=C(N[C@H]1CC[C@H](Nc2cc(-c3c[nH]c4nccnc34)cc(Cl)n2)CC1)[C@@H]1CCN1 [Example 30, (2S)—N-(trans-4-{[6-chloro-4-(5H-pyrrolo[2,3-b]pyrazin-7-yl)pyridin-2-yl]amino}cyclohexyl)azetidine-2-carboxamide] | – | > 8.00
17 | O=C1CC(C(=O)N[C@H]2CC[C@H](Nc3cc(-c4c[nH]c5nccnc45)cc(Cl)n3)CC2)CC(=O)N1 [Example 31, N-(trans-4-{[6-chloro-4-(5H-pyrrolo[2,3-b]pyrazin-7-yl)pyridin-2-yl]amino}cyclohexyl)-2,6-dioxopiperidine-4-carboxamide] | – | > 8.00
18 | O[C@H]1CC[C@H](Nc2cc(-c3c[nH]c4ncc(Cl)nc34)cc(Cl)n2)CC1 [Example 33, trans 4-{[6-chloro-4-(2-chloro-5H-pyrrolo[2,3-b]pyrazin-7-yl)pyridin-2-yl]amino}cyclohexanol] | – | > 8.00
19 | O[C@H]1CC[C@H](Nc2cc(-c3c[nH]c4ncc(Br)nc34)cc(Cl)n2)CC1 [Example 34, trans 4-{[4-(2-bromo-5H-pyrrolo[2,3-b]pyrazin-7-yl)-6-chloropyridin-2-yl]amino}cyclohexanol] | – | > 8.00
20 | Clc1cc(-c2c[nH]c3ncc(Cl)nc23)cc(NC2CCCCC2)n1 [Example 35, 6-chloro-4-(2-chloro-5H-pyrrolo[2,3-b]pyrazin-7-yl)-N-cyclohexylpyridin-2-amine] | – | > 8.00
21 | O=C(O)c1cnc2[nH]cc(-c3cc(Cl)nc(NC4CCCCC4)c3)c2n1 [Example 36, 7-[2-chloro-6-(cyclohexylamino)pyridin-4-yl]-5H-pyrrolo[2,3-b]pyrazine-2-carboxylic acid] | – | > 8.00
22 | N#Cc1cnc2[nH]cc(-c3cc(Cl)nc(NC4CCCCC4)c3)c2n1 [Example 37, 7-[2-chloro-6-(cyclohexylamino)pyridin-4-yl]-5H-pyrrolo[2,3-b]pyrazine-2-carbonitrile] | – | > 8.00
23 | Clc1cc(-c2c[nH]c3ncc(-c4ccccc4)nc23)cc(NC2CCCCC2)n1 [Example 38, 6-chloro-N-cyclohexyl-4-(2-phenyl-5H-pyrrolo[2,3-b]pyrazin-7-yl)pyridin-2-amine] | – | 7.00 to 8.00
24 | Clc1cc(-c2c[nH]c3ncc(Nc4ccccc4)nc23)cc(NC2CCCCC2)n1 [Example 39, 7-[2-chloro-6-(cyclohexylamino)pyridin-4-yl]-N-phenyl-5H-pyrrolo[2,3-b]pyrazin-2-amine] | – | 7.00 to 8.00
25 | Clc1cc(-c2c[nH]c3ncc(NCCCc4ccccc4)nc23)cc(NC2CCCCC2)n1 [Example 40, 7-[2-chloro-6-(cyclohexylamino)pyridin-4-yl]-N-(3-phenylpropyl)-5H-pyrrolo[2,3-b]pyrazin-2-amine] | – | 7.00 to 8.00
26 | Clc1cc(-c2c[nH]c3ncc(-c4cnccn4)nc23)cc(NC2CCCCC2)n1 [Example 41, 6-chloro-N-cyclohexyl-4-[2-(pyrazin-2-yl)-5H-pyrrolo[2,3-b]pyrazin-7-yl]pyridin-2-amine] | – | > 8.00
27 | COc1cc(N2CCC(N3CCN(C)CC3)CC2)ccc1Nc1cnc2[nH]cc(-c3cc(Cl)nc(NC4CCCCC4)c3)c2n1 [Example 42, 7-[2-chloro-6-(cyclohexylamino)pyridin-4-yl]-N-{2-methoxy-4-[4-(4-methylpiperazin-1-yl)piperidin-1-yl]phenyl}-5H-pyrrolo[2,3-b]pyrazin-2-amine] | – | > 8.00
28 | Clc1cc(-c2c[nH]c3ncc(/C=C/c4ccncc4)nc23)cc(NC2CCCCC2)n1 [Example 43, 6-chloro-N-cyclohexyl-4-{2-[(E)-2-(pyridin-4-yl)ethenyl]-5H-pyrrolo[2,3-b]pyrazin-7-yl}pyridin-2-amine] | – | > 8.00

— patent publication US8383624B2 (Abbott Laboratories, priority 2009, dated 2013)
